In one assay the test system is MCF-7. In words: Cytotoxicity, standard NCI assay with sulforhodamine B, 96 h. Conditions: Homo sapiens, MCF7, 96 h, read-out: cytotoxicity (GI50, nM ± SD) MCF-7.
The next assay relates to tubulin. The assay can be described thus: Induction/enhancement of tubulin assembly (Lin, et al., 1996). Type of assay: biochemical. The conditions noted are these: 10 μM tubulin, 0.4M monosodium glutamate, 30 min at room temperature; Table 2; read-out: induction of tubulin assembly (EC50, μM ± SD).
A further assay deals with OVCAR-8. The assay can be described thus: Cytotoxicity, standard NCI assay with sulforhodamine B, 96 h. The conditions noted are these: Homo sapiens, OVCAR-8, 96 h, read-out: cytotoxicity (GI50, nM ± SD) OVCAR-8.
Assay [1] concerns NCI-60 human cancer cell line panel. The assay can be described thus: NCI-60 initial one dose test. Type of assay: cell-based. Conditions: 10 μM. The source says: (§1) Biological evaluation. The synthesized epothilone analogues were submitted to the NCI for testing against the NCI-60 human cancer cell line panel (Shoemaker, 2006).
In the next assay the test system is U251. The assay can be described thus: NCI-60 human cancer cell line panel, five dose screen. Type of assay: cell-based. Conditions: U-251, NCI-60 five dose screen.
Description: as §1

For the next assay, the system named is SF-539. The assay is described as above. Type of assay: cell-based. The conditions noted are these: NCI-60 five dose screen.
Description: as §1

The subject of a further assay is HCT-116. The assay is described as above. Type of assay: cell-based. Conditions: NCI-60 five dose screen.
Description: as §1

Another assay deals with HT29. Described as above. Type of assay: cell-based. The conditions noted are these: HT-29, NCI-60 five dose screen.
Description: as §1

In a further assay the test system is HS 578T. The assay is described as above. Type of assay: cell-based. Conditions: NCI-60 five dose screen.
Description: as §1

The test system of another assay is NCI-H460. Described as above. Type of assay: cell-based. The conditions noted are these: NCI-60 five dose screen.
Description: as §1

The test system of a further assay is PC-3. Described as above. Type of assay: cell-based. The conditions noted are these: NCI-60 five dose screen.
Description: as §1

The next assay relates to KM12. The assay is described as above. Type of assay: cell-based. Conditions: NCI-60 five dose screen.
Description: as §1

The subject of another assay is COLO 205. The assay is described as above. Type of assay: cell-based. Conditions: NCI-60 five dose screen.
Description: as §1

The next assay concerns SNB-75. Described as above. Type of assay: cell-based. The conditions noted are these: NCI-60 five dose screen.
Description: as §1

A further assay concerns A498. Described as above. Type of assay: cell-based. Conditions: NCI-60 five dose screen.
Description: as §1

In the next assay the test system is HOP-92. The description is as above. Type of assay: cell-based. Conditions: NCI-60 five dose screen, dash defined by footnote e, read-out: GI50 (symbol).
Description: as §1

The subject of another assay is HL-60(TB). Described as above. Type of assay: cell-based. The conditions noted are these: NCI-60 five dose screen.
Description: as §1

A further assay has as its system RXF 393. The assay is described as above. Conditions: NCI-60 five dose screen. Type of assay: cell-based.
Description: as §1

In another assay the test system is MDA-MB-435. Described as above. The conditions noted are these: NCI-60 five dose screen. Type of assay: cell-based.
Description: as §1

For a further assay, the system named is M14. The assay is described as above. Type of assay: cell-based. Conditions: NCI-60 five dose screen.
Description: as §1

For a further assay, the system named is MDA-MB-468. The description is as above. Conditions: NCI-60 five dose screen. Type of assay: cell-based.
Description: as §1

The next assay deals with MOLT-4. The description is as above. Type of assay: cell-based. Conditions: NCI-60 five dose screen.
Description: as §1

Another assay deals with SW-620. The assay is described as above. Type of assay: cell-based. The conditions noted are these: NCI-60 five dose screen.
Description: as §1

Another assay concerns HCT-15. The description is as above. Type of assay: cell-based. Conditions: NCI-60 five dose screen.
Description: as §1

Another assay deals with K-562. The assay is described as above. Type of assay: cell-based. The conditions noted are these: K562, NCI-60 five dose screen.
Description: as §1

For the next assay, the system named is MCF7. Described as above. Type of assay: cell-based. Conditions: NCI-60 five dose screen.
Description: as §1

A further assay concerns A549/ATCC. The description is as above. Type of assay: cell-based. The conditions noted are these: NCI-60 five dose screen.
Description: as §1

Another assay relates to RPMI-8226. The assay is described as above. Conditions: NCI-60 five dose screen. Type of assay: cell-based.
Description: as §1

The subject of the next assay is SR. The description is as above. Type of assay: cell-based. The conditions noted are these: NCI-60 five dose screen.
Description: as §1

In a further assay the test system is LOX IMVI. The assay is described as above. Type of assay: cell-based. The conditions noted are these: NCI-60 five dose screen.
Description: as §1

For a further assay, the system named is CCRF-CEM. The description is as above. The conditions noted are these: NCI-60 five dose screen. Type of assay: cell-based.
Description: as §1

Another assay has as its system SK-MEL-5. The assay is described as above. Type of assay: cell-based. Conditions: NCI-60 five dose screen.
Description: as §1

The test system of another assay is OVCAR-3. The assay is described as above. Type of assay: cell-based. The conditions noted are these: NCI-60 five dose screen.
Description: as §1

The next assay concerns NCI-H23. The description is as above. Type of assay: cell-based. Conditions: NCI-60 five dose screen.
Description: as §1

`CSc1cc(/C=C(\C)[C@@H]2C[C@@H]3O[C@]3(C)CCC[C@H](C)[C@H](O)[C@@H](C)C(=O)C(C)(C)[C@@H](O)CC(=O)O2)n(CCNC(=O)OC(C)(C)C)n1` [Compound 5]: the GI50 – broadly, the concentration giving 50% growth inhibition – worked out at 1600 nM with MCF-7 and 900 nM in the assay on OVCAR-8. Moreover, in the assay on tubulin, the EC50 – broadly, the concentration giving half of the maximal effect – was over 40 µM. The “activity in initial one dose test” value in assay [1] is listed as “did not exhibit significant activity”.
For `C/C(=C\c1cc(C(F)(F)F)nn1CCNC(=O)OC(C)(C)C)[C@@H]1C[C@@H]2O[C@]2(C)CCC[C@H](C)[C@H](O)[C@@H](C)C(=O)C(C)(C)[C@@H](O)CC(=O)O1` [Compound 6], the values for the GI50 in the assay with MCF-7 and in the assay on OVCAR-8 were 4400 nM and 1200 nM, respectively. In addition, the half-maximal effective concentration (EC50) with tubulin is over 40 µM. Besides, the “activity in initial one dose test” value in assay [1] is “did not exhibit significant activity”.
Taken in the same sequence, the figures for `C/C(=C\c1cc(C(F)(F)F)nn1CCNC(=O)OCC[Si](C)(C)C)[C@@H]1C[C@@H]2O[C@]2(C)CCC[C@H](C)[C@H](O)[C@@H](C)C(=O)C(C)(C)[C@@H](O)CC(=O)O1` [Compound 7] were 1800 nM, 1300 nM, over 40 µM and “did not exhibit significant activity”.
Consider `C/C(=C\c1ccn(-c2ccc(N)cc2F)n1)[C@@H]1C[C@@H]2O[C@]2(C)CCC[C@H](C)[C@H](O)[C@@H](C)C(=O)C(C)(C)[C@@H](O)CC(=O)O1` [Compound 14], for which the GI50 with MCF-7 came to 14 ± 2 nM; with U251 it was 36.2 nM; with SF-539, 26.2 nM; in the assay with HCT-116 it was 17.1 nM; in the assay on HT29 it was 18.4 nM; in the assay on HS 578T, 37.2 nM. Further, the GI50 with NCI-H460 amounted to 20.8 nM; with PC-3 it was 25.8 nM; in the assay with KM12, 17.7 nM; with COLO 205, 18.2 nM; in the assay on SNB-75, 11.7 nM; in the assay with A498, 80.2 nM. In addition, the GI50 with HOP-92 was over 100 nM; in the assay on HL-60(TB), 14.1 nM; in the assay with RXF 393 it was 30.6 nM; in the assay with MDA-MB-435, 8.35 nM; with M14, 18.7 nM; with MDA-MB-468, 20.9 nM. For the same molecule, the GI50 with MOLT-4 came to 28.3 nM; with SW-620, 23.6 nM; in the assay with HCT-15, 22.6 nM; in the assay with K-562 it was 20.7 nM; in the assay with MCF7 it was 14 nM; in the assay on A549/ATCC, 37.6 nM. The GI50 in the assay with RPMI-8226 amounted to 19.6 nM; in the assay on SR, 29.2 nM; in the assay on LOX IMVI it was 23.1 nM; in the assay on CCRF-CEM, 13.6 nM; with SK-MEL-5, 18 nM; in the assay on OVCAR-3 it was 17.6 nM. Besides, the GI50 in the assay with NCI-H23 was 24.2 nM; in the assay with OVCAR-8, 38 ± 10 nM. In the assay on tubulin, the EC50 is 19 ± 1 µM.

The values are drawn from US10874646B2, “Epothilone analogs, methods of synthesis, methods of treatment, and drug conjugates thereof” (WILLIAM MARSH RICE UNIVERSITY, priority 2015, dated 2020).
